Test results reported in patent US9861616B2, “Methods for treating respiratory diseases and formulations therefor” (priority 2013, dated 2018).
In brackets after ≈: the same amount, converted by molar mass.

Assays:
P. aeruginosa (PA) = experiment: MIC by microdilution, 36 clinical and laboratory strains with known efflux phenotype; type: cell-based
Method: (§1) MICs of 36 clinical and laboratory strains of PA with known efflux phenotype are measured by microdilution in cation-adjusted Muller-Hinton broth (CA-MHB) or in RPMI medium (commonly used in eukaryotic cell culture). Phe-Arg-β-naphthylamide (PaβN, 50 mg/L) and EGTA 5 mM are used to inhibit efflux pumps and alter OM integrity, respectively. P. aeruginosa strain ATCC PAO1 is used as reference. PA12 is a clinical strain overexpressing the 4 main efflux systems (MexAB, MexCD, MexEF, MexXY), PA403 is a laboratory strain deleted in the genes coding for the 4 efflux systems. A series of reference strains or of clinical isolates for which the expression of genes coding for efflux pumps is known is also used for MICs determinations. MICs are measured by microdilution in MH broth or in RPMI medium (used for eukaryotic cells culture) supplemented with 10% of fetal calf serum, or in MH broth supplemented by increasing amounts of serum. EGTA (5 mM) was used as a chelating agent (disrupting outer membrane integrity) and PaβN (50 mg/L) as an unspecific efflux inhibitor.

TNFα release = experiment: LPS-induced TNFα release in PMA-differentiated U937 cells (ELISA); type: cell-based, human
Method: Effects of macrolides on lipopolysaccharide (LPS)-induced TNFα release in PMA-differentiated U937 cells. […] LPS-induced TNFα release was evaluated by ELISA. Values represent means of three experiments±SEM. ^##p<0.01 (vs. non-treatment control), *p<0.05, **p<0.01 (vs. treatment with LPS only).
The human monocytic cell line U937 was obtained from the American Type Culture Collection (ATCC, Rockville, Md.). PBMCs from COPD patients were obtained from Brompton hospital and separated by AccuSPIN (Sigma-Aldrich). Cells were cultured in complete growth medium (RPMI 1640) (Sigma-Aldrich) supplemented with 10% fetal bovine serum (FBS) and 1% L-glutamine at 37° C. in a humidified atmosphere with 5% CO2. U937 cells were differentiated into adherent macrophage-like morphology by exposure to PMA (50 ng/mL) for 48 hrs in complete growth medium. Cell viability was assessed microscopically by trypan blue staining. Cell toxicity was determined by MTT assay as needed. This study was approved by the ethics committee of the Royal Brompton Hospitals, and all subjects gave written informed consent.
TNFα and IL-8 concentrations in the supernatant of cell cultures were determined by sandwich ELISA according to the manufacturer's instructions (R&D Systems Europe, Abingdon, UK).
The results were expressed as the mean±SEM. Comparisons of data in two groups were performed using the Student's t test or the Wilcoxon signed rank test. Multiple comparisons were made by one-way ANOVA with post hoc test (Dunnett's) as appropriate. The difference was considered significant at p<0.05. IC50 values (50% inhibitory concentration) for macrolides for production of cytokines or MMP9 were calculated using Prism 4.0 (GraphPad Software Inc., San Diego, Calif.).

P. aeruginosa PA12 = experiment: MIC by microdilution with PaβN or EGTA, clinical isolate overexpressing efflux pumps; type: cell-based; settings: Pseudomonas aeruginosa
Method: as §1

CC[C@H]1OC(=O)[C@H](C)[C@@H](O[C@H]2C[C@@](C)(OC)[C@@H](O)[C@H](C)O2)[C@H](C)[C@@H](O[C@@H]2O[C@H](C)C[C@H](N(C)C)[C@H]2O)[C@](C)(O)C[C@@H](C)C(=O)[C@H](C)[C@@H](O)[C@]1(C)O [ERY, erythromycin]
MIC (P. aeruginosa (PA); strain 1, efflux AB+, MHB): 512 µg/mL (≈ 698 µM)
MIC (P. aeruginosa (PA); strain 1, efflux AB+, RPMI): 8 µg/mL (≈ 10.9 µM)
MIC (P. aeruginosa (PA); strain 2, efflux CD+, MHB): 512 µg/mL (≈ 698 µM)
MIC (P. aeruginosa (PA); strain 3, efflux EF+, RPMI): 8 µg/mL (≈ 10.9 µM)
MIC (P. aeruginosa (PA); strain 4, efflux XY+, MHB): 512 µg/mL (≈ 698 µM)
MIC (P. aeruginosa (PA); strain 4, efflux XY+, RPMI): 32 µg/mL (≈ 43.6 µM)
MIC (P. aeruginosa (PA); strain 11, efflux AB + CD+, RPMI): 16 µg/mL
MIC (P. aeruginosa (PA); strain 12, efflux AB + CD + EF + XY+, MHB): 512 µg/mL
MIC (P. aeruginosa (PA); strain 12, efflux AB + CD + EF + XY+, RPMI): 32 µg/mL
MIC (P. aeruginosa (PA); strain 16, efflux AB + XY+, MHB): 512 µg/mL
MIC (P. aeruginosa (PA); strain 16, efflux AB + XY+, RPMI): 32 µg/mL
MIC (P. aeruginosa (PA); strain 21, efflux AB+, MHB): 512 µg/mL (≈ 698 µM)
MIC (P. aeruginosa (PA); strain 21, efflux AB+, RPMI): 64 µg/mL (≈ 87.2 µM)
MIC (P. aeruginosa (PA); strain 22, efflux XY+, MHB): 512 µg/mL (≈ 698 µM)
MIC (P. aeruginosa (PA); strain 22, efflux XY+, RPMI): 32 µg/mL (≈ 43.6 µM)
MIC (P. aeruginosa (PA); strain 40, efflux EF+, RPMI): 32 µg/mL (≈ 43.6 µM)
MIC (P. aeruginosa (PA); strain 41, efflux CD+, MHB): 512 µg/mL (≈ 698 µM)
MIC (P. aeruginosa (PA); strain 41, efflux CD+, RPMI): 64 µg/mL (≈ 87.2 µM)
MIC (P. aeruginosa (PA); strain 48, efflux CD + EF + XY+, MHB): 512 µg/mL
MIC (P. aeruginosa (PA); strain 48, efflux CD + EF + XY+, RPMI): 64 µg/mL
MIC (P. aeruginosa (PA); strain 49, efflux CD + EF + XY+, MHB): 512 µg/mL
MIC (P. aeruginosa (PA); strain 49, efflux CD + EF + XY+, RPMI): 64 µg/mL
MIC (P. aeruginosa (PA); strain 63, efflux AB + EF + XY+, MHB): 512 µg/mL
MIC (P. aeruginosa (PA); strain 63, efflux AB + EF + XY+, RPMI): 64 µg/mL
MIC (P. aeruginosa (PA); strain 68, efflux AB + XY+, MHB): 512 µg/mL
MIC (P. aeruginosa (PA); strain 68, efflux AB + XY+, RPMI): 64 µg/mL
MIC (P. aeruginosa (PA); strain 133, efflux EF + XY+, MHB): 512 µg/mL
MIC (P. aeruginosa (PA); strain 133, efflux EF + XY+, RPMI): 64 µg/mL
MIC (P. aeruginosa (PA); strain 156, efflux EF + XY+, MHB): 512 µg/mL
MIC (P. aeruginosa (PA); strain 156, efflux EF + XY+, RPMI): 16 µg/mL
MIC (P. aeruginosa (PA); strain 168B, efflux CD + XY+, MHB): 512 µg/mL
MIC (P. aeruginosa (PA); strain 207, efflux AB + EF + XY+, MHB): 512 µg/mL
MIC (P. aeruginosa (PA); strain 266B, efflux AB + CD+, MHB): 512 µg/mL
MIC (P. aeruginosa (PA); strain 266B, efflux AB + CD+, RPMI): 64 µg/mL
MIC (P. aeruginosa (PA); strain 333A, efflux AB + EF+, MHB): 512 µg/mL
MIC (P. aeruginosa (PA); strain 333A, efflux AB + EF+, RPMI): 64 µg/mL
MIC (P. aeruginosa (PA); strain 335, efflux AB + EF+, MHB): 512 µg/mL
MIC (P. aeruginosa (PA); strain 335, efflux AB + EF+, RPMI): 64 µg/mL
MIC (P. aeruginosa (PA); strain 391, efflux EF−, RPMI): 32 µg/mL (≈ 43.6 µM)
MIC (P. aeruginosa (PA); strain 392, efflux CD−, RPMI): 16 µg/mL (≈ 21.8 µM)
MIC (P. aeruginosa (PA); strain 394, efflux XY−, MHB): 512 µg/mL (≈ 698 µM)
MIC (P. aeruginosa (PA); strain 394, efflux XY−, RPMI): 32 µg/mL (≈ 43.6 µM)
MIC (P. aeruginosa (PA); strain 395, efflux HI−, RPMI): 32 µg/mL (≈ 43.6 µM)
MIC (P. aeruginosa (PA); strain 396, ompH−, RPMI): 16 µg/mL (≈ 21.8 µM)
MIC (P. aeruginosa (PA); strain 397, efflux AB−, MHB): 16 µg/mL (≈ 21.8 µM)
MIC (P. aeruginosa (PA); strain 397, efflux AB−, RPMI): 2 µg/mL (≈ 2.73 µM)
MIC (P. aeruginosa (PA); strain 398, efflux CD−, MHB): 16 µg/mL (≈ 21.8 µM)
MIC (P. aeruginosa (PA); strain 398, efflux CD−, RPMI): 4 µg/mL (≈ 5.45 µM)
MIC (P. aeruginosa (PA); strain 399, efflux AB − EF−, MHB): 16 µg/mL (≈ 21.8 µM)
MIC (P. aeruginosa (PA); strain 399, efflux AB − EF−, RPMI): 4 µg/mL (≈ 5.45 µM)
MIC (P. aeruginosa (PA); strain 400, efflux XY−, MHB): 16 µg/mL (≈ 21.8 µM)
MIC (P. aeruginosa (PA); strain 400, efflux XY−, RPMI): 4 µg/mL (≈ 5.45 µM)
MIC (P. aeruginosa (PA); strain 401, ompH−, MHB): 8 µg/mL (≈ 10.9 µM)
MIC (P. aeruginosa (PA); strain 401, ompH−, RPMI): 4 µg/mL (≈ 5.45 µM)
MIC (P. aeruginosa (PA); strain 403, efflux AB − CD − EF − XY−, MHB): 16 µg/mL (≈ 21.8 µM)
MIC (P. aeruginosa (PA); strain 403, efflux AB − CD − EF − XY−, RPMI): 4 µg/mL (≈ 5.45 µM)
MIC (P. aeruginosa (PA); strain 405, efflux AB − CD − EF − XY−, MHB): 8 µg/mL (≈ 10.9 µM)
MIC (P. aeruginosa (PA); strain 405, efflux AB − CD − EF − XY−, RPMI): 4 µg/mL (≈ 5.45 µM)
MIC (P. aeruginosa (PA); strain 434, efflux AB + CD + XY+, MHB): 512 µg/mL
MIC (P. aeruginosa (PA); strain PAO1, REFERENCE, MHB): 512 µg/mL (≈ 698 µM)
MIC (P. aeruginosa (PA); strain PAO1, REFERENCE, RPMI): 32 µg/mL (≈ 43.6 µM)
effect on TNFα production (TNFα release; 33 to 333 μM (FIG. 3)): did not inhibit
IC50 (TNFα release; Homo sapiens, U-937, U937 cells, at 333 μM, read-out: IC50, LPS-induced TNFα release: NE at 333 μM): > 333 µM
MIC (P. aeruginosa PA12; PA12, PA12, CA-MHB, EGTA 5 mM): 512 µg/mL (≈ 698 µM)
MIC (P. aeruginosa PA12; PA12, PA12, CA-MHB, PaβN 50 mg/L): 32 µg/mL (≈ 43.6 µM)
MIC (P. aeruginosa PA12; PA12, PA12, CA-MHB, control conditions (CT)): 512 µg/mL (≈ 698 µM)
MIC (P. aeruginosa PA12; PA12, PA12, RPMI, EGTA 5 mM): 2 µg/mL (≈ 2.73 µM)
MIC (P. aeruginosa PA12; PA12, PA12, RPMI, PaβN 50 mg/L): 32 µg/mL (≈ 43.6 µM)
MIC (P. aeruginosa PA12; PA12, PA12, RPMI, control conditions (CT)): 32 µg/mL (≈ 43.6 µM)
